In patent US20100298141A1, “SUBSTITUTED PYRIDINE N-OXIDE HERBICIDES” (E. I. DU PONT DE NEMOURS AND COMPANY, priority 2007, published 2010):

Experiments:
mustard = test: Test F preemergence test; format: in vivo, Brassica nigra; settings: scale 0 to 100
Outline: (§1)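 Preemergence application to planted seeds, or postemergence to sugarcane plants; compound in non-phytotoxic solvent mix plus surfactant. Greenhouse, 14-21 days. Visual rating vs. controls.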

cocklebur = test: Test C pre-/postemergence test; format: in vivo, Xanthium strumarium
Outline: (§2)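 Compounds in a non-phytotoxic solvent with surfactant applied preemergence to seeded pots and, at the same time, postemergence to plants 2–18 cm tall (1- to 4-leaf stage). Paddy tests: pots flooded to 3 cm, compound applied into the water, depth held throughout.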

velvetleaf = test: Test C pre-/postemergence test; format: in vivo, Abutilon theophrasti; settings: Preemergence
Outline: as §2

broadleaf signalgrass = test: Test F preemergence test; format: in vivo, Brachiaria platyphylla; settings: scale 0 to 100
Outline: as §1

common mallow = test: Test F preemergence test; format: in vivo, Malva sylvestris; settings: scale 0 to 100
Outline: as §1

barnyardgrass [1] = test: Test A pre-/postemergence greenhouse test; format: in vivo, Echinochloa crus-galli; settings: for Barnyardgrass plant response rating: 0 to 100 scale
Outline: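 Each test compound, dissolved in a non-phytotoxic solvent mixture with surfactant, was sprayed directly onto seeded soil (loam/sand blend) and, at the same moment, onto seedlings carrying one to two leaves. Around ten greenhouse days later, plants were rated visually for injury relative to untreated controls.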

annual bluegrass = test: Test F preemergence test; format: in vivo, Poa annua; settings: scale 0 to 100
Outline: as §1

Virginia dayflower = test: Test F preemergence test; format: in vivo, Commelina virginica; settings: scale 0 to 100
Outline: as §1

field bindweed = test: Test F preemergence test; format: in vivo, Convolvulus arvensis; settings: scale 0 to 100
Outline: as §1

green foxtail = test: Test F preemergence test; format: in vivo, Setaria viridis; settings: scale 0 to 100
Outline: as §1

itchgrass = test: Test F preemergence test; format: in vivo, Rottboellia cochinchinensis; settings: scale 0 to 100
Outline: as §1

dallisgrass = test: Test F preemergence test; format: in vivo, Paspalum dilatatum; settings: scale 0 to 100
Outline: as §1

kochia = test: Test C pre-/postemergence test; format: in vivo, Kochia scoparia; settings: Preemergence
Outline: as §2

barnyardgrass [2] = test: Test F preemergence test; format: in vivo, Echinochloa crus-galli
Outline: as §1

[3] = 62 g ai/ha, Preemergence, scale 0 to 100
[4] = 31 g ai/ha, scale 0 to 100 (0 no effect, 100 complete control)

CC(c1c(C(F)(F)F)nn(C)c1OCC(F)(F)F)S(=O)(=O)c1cccc[n+]1[O-] (racemic) [Compound 33]
100: Black Mustard plant response rating (mustard; 62 g ai/ha, Preemergence) | Black Mustard plant response rating (mustard; 125 g ai/ha, preemergence) | Velvetleaf plant response rating (velvetleaf; 62 g ai/ha, scale 0 to 100) | Plant response rating, Velvetleaf (velvetleaf; [4]) | Plant response rating, Mallow (common mallow; 16 g ai/ha, preemergence) | Mallow plant response rating (common mallow; 62 g ai/ha, Preemergence) | Mallow plant response rating (common mallow; 125 g ai/ha, preemergence) | Plant response rating, Mallow (common mallow; Preemergence, 31 g ai/ha) | Barnyardgrass plant response rating (barnyardgrass [1]; Postemergence, 500 g ai/ha, 0 is no effect, 100 is complete control) | Barnyardgrass plant response rating (barnyardgrass [1]; Preemergence, 125 g ai/ha, 0 no effect, 100 complete control) | Plant response rating, Barnyardgrass (barnyardgrass [1]; Preemergence, 500 g ai/ha, 0 to 100 scale where 0 is no effect and 100 is complete control) | Bluegrass plant response rating (annual bluegrass; 62 g ai/ha, Preemergence) | Bluegrass plant response rating (annual bluegrass; 125 g ai/ha, preemergence) | Dayflower plant response rating (Virginia dayflower; 125 g ai/ha, preemergence) | Foxtail, Green plant response rating (green foxtail; 62 g ai/ha, Preemergence) | Foxtail, Green plant response rating (green foxtail; 125 g ai/ha, preemergence) | Itchgrass plant response rating (itchgrass; 125 g ai/ha, preemergence) | Dallisgrass plant response rating (dallisgrass; 125 g ai/ha, preemergence) | Kochia plant response rating (kochia; 62 g ai/ha, scale 0 to 100) | Plant response rating, Kochia (kochia; [4]) | Plant response rating, Barnyardgrass (barnyardgrass [2]; 16 g ai/ha, preemergence, scale 0 to 100 (0 no effect, 100 complete control)) | Barnyardgrass plant response rating (barnyardgrass [2]; [3]) | Barnyardgrass plant response rating (barnyardgrass [2]; 125 g ai/ha, preemergence, scale 0 to 100) | Plant response rating, Barnyardgrass (barnyardgrass [2]; Preemergence, 31 g ai/ha, scale 0 to 100)
15: Plant response rating, Signalgrass (broadleaf signalgrass; 16 g ai/ha, preemergence)
30: Plant response rating, Dallisgrass (dallisgrass; 16 g ai/ha, preemergence)
80: Signalgrass plant response rating (broadleaf signalgrass; 125 g ai/ha, preemergence) | Itchgrass plant response rating (itchgrass; 62 g ai/ha, Preemergence) | Dallisgrass plant response rating (dallisgrass; 62 g ai/ha, Preemergence)
60: Plant response rating, Dayflower (Virginia dayflower; 16 g ai/ha, preemergence) | Field Bindweed plant response rating (field bindweed; 125 g ai/ha, preemergence)
98: Dayflower plant response rating (Virginia dayflower; 62 g ai/ha, Preemergence)
75: Plant response rating, Signalgrass (broadleaf signalgrass; Preemergence, 62 g ai/ha)
50: Field Bindweed plant response rating (field bindweed; 62 g ai/ha, Preemergence) | Plant response rating, Foxtail, Green (green foxtail; Preemergence, 31 g ai/ha)
25: Plant response rating, Itchgrass (itchgrass; 16 g ai/ha, preemergence)
70: Barnyardgrass plant response rating (barnyardgrass [1]; Postemergence, 125 g ai/ha, 0 is no effect, 100 is complete control)
45: Plant response rating (0 to 100), Cocklebur (cocklebur; Preemergence, 250 g ai/ha)
90: Plant response rating, Dayflower (Virginia dayflower; Preemergence, 31 g ai/ha)
35: Plant response rating, Signalgrass (broadleaf signalgrass; Preemergence, 31 g ai/ha) | Plant response rating, Bluegrass (annual bluegrass; 16 g ai/ha, preemergence)
65: Plant response rating, Black Mustard (mustard; Preemergence, 31 g ai/ha) | Plant response rating, Bluegrass (annual bluegrass; Preemergence, 31 g ai/ha) | Plant response rating, Dallisgrass (dallisgrass; Preemergence, 31 g ai/ha)
10: Plant response rating, Black Mustard (mustard; 16 g ai/ha, preemergence)
0: Cocklebur plant response rating (cocklebur; [3]) | Plant response rating, Cocklebur (cocklebur; Preemergence, 31 g ai/ha, scale 0 to 100 (0 no effect, 100 complete control)) | Plant response rating, Field Bindweed (field bindweed; 16 g ai/ha, preemergence) | Plant response rating, Field Bindweed (field bindweed; Preemergence, 31 g ai/ha) | Plant response rating, Foxtail, Green (green foxtail; 16 g ai/ha, preemergence)
40: Cocklebur plant response rating (cocklebur; preemergence, 125 g ai/ha, scale 0 (no effect) to 100 (complete control)) | Plant response rating, Itchgrass (itchgrass; Preemergence, 31 g ai/ha)
